Results taken from patent US20110318266A1, “PHTHALIMIDE DERIVATIVE METABOTROPIC GLUTAMATE R4 LIGANDS” (priority 2008, published 2011).

Experiments:
mGluR4 [1] = target: T1, mGluR4 (Homo sapiens, UniProt Q14833); experiment: Fluorescent Plate Imaging Reader (FLIPR) Assay for mGluR4 Potentiators; type: cell-based; parameters: expressed in transfected cells; settings: for Emax: maximal activity relative to response with saturating concentration (10 uM) of agonist L-AP4, read-out: mGlu4 FLIPR % Max Efficacy; for EC50: potentiator response with EC10 concentration of L-AP4 (30 nM), inflection point of the curve, read-out: mGluR4 FLIPR Potency
T1 sequence (Q14833 33-912): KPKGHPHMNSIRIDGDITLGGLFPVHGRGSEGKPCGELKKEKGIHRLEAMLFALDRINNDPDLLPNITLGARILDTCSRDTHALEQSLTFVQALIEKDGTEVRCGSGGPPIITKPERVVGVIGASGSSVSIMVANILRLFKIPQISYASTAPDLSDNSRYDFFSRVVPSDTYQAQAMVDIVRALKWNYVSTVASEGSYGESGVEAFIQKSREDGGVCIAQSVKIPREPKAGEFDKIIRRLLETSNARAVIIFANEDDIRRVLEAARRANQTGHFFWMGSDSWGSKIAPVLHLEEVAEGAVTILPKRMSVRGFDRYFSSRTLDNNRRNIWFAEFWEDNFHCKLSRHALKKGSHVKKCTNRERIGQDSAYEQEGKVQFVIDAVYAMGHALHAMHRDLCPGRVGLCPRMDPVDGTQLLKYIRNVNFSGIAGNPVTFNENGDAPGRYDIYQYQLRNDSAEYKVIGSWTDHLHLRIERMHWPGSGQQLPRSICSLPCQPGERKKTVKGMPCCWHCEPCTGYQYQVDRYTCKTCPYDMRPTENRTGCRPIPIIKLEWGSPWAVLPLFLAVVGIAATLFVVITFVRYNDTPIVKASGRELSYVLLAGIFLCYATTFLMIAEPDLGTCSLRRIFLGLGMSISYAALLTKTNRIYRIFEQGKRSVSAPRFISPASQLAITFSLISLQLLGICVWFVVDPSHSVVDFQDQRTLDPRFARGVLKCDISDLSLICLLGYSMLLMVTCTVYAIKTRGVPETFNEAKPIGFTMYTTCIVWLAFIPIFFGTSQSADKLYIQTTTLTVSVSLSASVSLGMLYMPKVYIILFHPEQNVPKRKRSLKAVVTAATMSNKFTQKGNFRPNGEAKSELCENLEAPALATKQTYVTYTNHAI
Method: Cells are grown in Corning T162 cm^2 flasks in DMEM growth media at 37° C. and 5% CO2. Growth media contains: Gibco DMEM supplemented with 10% defined FBS, 1% GlutaMax −1, 1% sodium pyruvate, 1% NEAA, 1% Pen/Strep, 250 ug/ml zeocin, 25 mM HEPES, 0.1% 2-Mercaptoethanol, 600 ug/ml Hygromycin B, 7.5 ug/ml blasticidin, and 5 ug/ml puromycin.
The day prior to the experiment the cells were plated in growth medium (minus glutamine) at 50K cells/well into Becton-Dickinson 384-well PDL-coated plates using a Labsystems Multidrop (0.1 ml/well). The cells are grown overnight at 37° C. and 6% CO2.
The following day, the cells are washed with Assay Buffer at 37° C. using a Skatron EMBLA cell washer (3×100 μl, aspiration 3 mm from bottom will leave 30 μl of buffer in each well). Assay buffer is Hanks balanced salt solution with 20 mM HEPES, 2.5 mM probenecid and 0.1% BSA.
Fluorescent dye, 30 μl of the diluted Fluo-4-AM, is added to each well of the plate. The Fluo-4-AM solution is added to achieve a final concentration in the assay of 2 uM Fluo-4-AM, 0.02% pluronic acid and 1% FBS. The assay plates are placed back into the 6% CO2 incubator and incubated at 37° C. for 60 min. The 384-well plates are washed with Assay Buffer at 37° C. on using a cell washer (3×100 μl, aspiration 3 mm from bottom, will leave 30 μl of buffer in each well). The experimental run is initiated and after 30 sec a dose of test compound is applied. The fluorescent response elicited by test compound is monitored for 5 min, any positive response detected at this stage is attributed to agonist properties of the test compound. At this point an EC10 concentration of the mGluR4 agonist L-AP4 ((S)-2-amino-4-phosphonobutanoate) (final concentration 30 nM) is added and the fluorescent response is monitored for an additional 3 minutes, any positive response detected at this stage is attributed to potentiator properties of the test compound.
Controls for the assay include a no compound control, a positive control which is a saturating concentration, 10 uM, of the agonist L-AP4. A 10 point dose response, with either 2-fold or 3-fold dilution steps, is performed and curve fitting algorithms, suitable for a sigmoidal dose response relationship, are used to fit the data. The inflection point of the curve provides a measure of compound potency.
A comparison of the maximal level of activity achieved for a test compound, relative to the response achieved with a saturating concentration of the agonist L-AP4 provides a measure of compound efficacy.

mGluR4 [2] = target: T1, mGluR4; experiment: mGluR4 Binding Assay; parameters: expressed in transfected cells; host or cells: CHO cells; settings: membranes from CHO cells expressing human mGluR4; 20 uM L-AP4; 7 nM radiotracer [3H]-N-(4-{[(2-Chlorophenyl)amino]sulfonyl}phenyl)pyridine-2-carboxamide
Method: Membranes were prepared from CHO cells expressing the human mGluR4 receptor. Cells were harvested using trypsin and then washed in assay buffer, assay buffer contains 50 mM HEPES, 1 mM EDTA and protease inhibitors (Boehringer Mannheim catalog #1 836 170). Harvested cells were pelleted by centrifugation and stored at −80° C. for a minimum of 12 hours. Cells were resuspended in assay buffer and lysed by a polytron, a low speed spin, 2000×g for 10 min, was used to recover unbroken cells for additional treatment using the polytron. The cleared supernatant from the low speed spins was subjected to a high speed spin, 96,000×g for 1 hour. The membrane pellet from the high speed spin was resuspended in assay buffer and used in the mGluR4 binding assay.
The binding assay follows a standard filtration binding paradigm. The binding buffer consists of 20 mM HEPES, 100 mM NaCl and 3 mM MgCl2, the pH of the buffer is 7.4. The assay is performed in a 96-well format with each well containing test compound, 25 to 50 ug of membrane protein, 20 uM L-AP4, and 7 nM radiotracer, [^3H]—N-(4-{[(2-Chlorophenyl)amino]sulfonyl}phenyl)pyridine-2-carboxamide, which is disclosed in commonly owned U.S. patent application docket no.
The binding reaction is incubated at room temperature for 1 hour, and then is passed through GF/B filter that was presoaked with 0.5% PEI. The cell membranes are collected on the filter and then washed five times with ˜5 ml ice cold binding buffer that contains 0.01% BSA. The washed filter plate is dried for 30 minutes at 37° C., scintillation fluid is added, and the amount of filter bound radioactivity is determined using a TopCount instrument. […] To determine the level of non-specific binding for the radiotracer [^3H]—N-(4-{[(2-Chlorophenyl)amino]sulfonyl}phenyl)pyridine-2-carboxamide, 5 uM of unlabeled [^3H]—N-(4-{[(2-Chlorophenyl)amino]sulfonyl}phenyl)pyridine-2-carboxamide is added to determine the level of non-specific binding. […]

Emax (mGluR4 [1])	EC50 (mGluR4 [1])	IC50 (mGluR4 [2])	Structure (SMILES)
104%	390 nM	1720 nM	Cc1cc(NC(=O)c2ccccn2)ccc1N1C(=O)c2ccccc2C1=O [Example 3, N-[4-(1,3-dioxo-1,3-dihydro-2H-isoindol-2-yl)-3-methylphenyl]pyridine-2-carboxamide]
110%	50.4 nM	–	O=C(Nc1ccc(N2C(=O)c3cccc(F)c3C2=O)c(Cl)c1)c1ccccn1 [Example 10, N-[3-chloro-4-(4-fluoro-1,3-dioxo-1,3-dihydro-2H-isoindol-2-yl)phenyl]pyridine-2-carboxamide]
125%	43.6 nM	–	Cc1cccc2c1C(=O)N(c1ccc(NC(=O)c3ccccn3)cc1Cl)C2=O [Example 13, N-[3-chloro-4-(4-methyl-1,3-dioxo-1,3-dihydro-2H-isoindol-2-yl)phenyl]pyridine-2-carboxamide]
109%	101 nM	12 nM	Cc1cccc2c1C(=O)N(c1ccc(NC(=O)c3ccccn3)cc1Br)C2=O [Example 29, N-[3-bromo-4-(4-methyl-1,3-dioxo-1,3-dihydro-2H-isoindol-2-yl)phenyl]pyridine-2-carboxamide]
52%	341 nM	712 nM	O=C(Nc1ccc(N2C(=O)c3ccccc3C2=O)cc1)c1ccccn1 [Example 1, N-[4-(1,3-dioxo-1,3-dihydro-2H-isoindol-2-yl)phenyl]pyridine-2-carboxamide]
